Laboratory results taken from PubChem BioAssay AID1053178 (The Scripps Research Institute Molecular Screening Center, 2014).
Active and inactive are the calls of the source.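 The calls were made as follows: active = IC50 at or below 10 µM; inactive = IC50 above 10 µM.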

Molecular target: Trace amine-associated receptor 1 (Homo sapiens) (UniProt Q96RJ0)
Experiment: blockers of human TAAR1 receptor – cell-based, fluorescence, MDRUN002, late-stage follow-up (AID 1053178)
Details: CHO TAAR1 cells, cAMP TR-FRET, PEA-stimulated antagonism

Sequence of Trace amine-associated receptor 1 (Homo sapiens) (Q96RJ0 whole entry, looked up): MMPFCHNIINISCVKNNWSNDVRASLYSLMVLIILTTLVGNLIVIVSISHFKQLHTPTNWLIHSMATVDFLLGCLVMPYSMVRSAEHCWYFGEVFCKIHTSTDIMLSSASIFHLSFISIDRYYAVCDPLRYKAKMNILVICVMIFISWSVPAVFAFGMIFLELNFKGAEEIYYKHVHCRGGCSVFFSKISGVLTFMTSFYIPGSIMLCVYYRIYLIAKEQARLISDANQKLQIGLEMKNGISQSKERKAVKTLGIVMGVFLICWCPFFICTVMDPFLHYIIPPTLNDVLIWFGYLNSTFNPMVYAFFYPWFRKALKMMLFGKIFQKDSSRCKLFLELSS

Row | SMILES | IC50
1 | Cc1ccc(C(=O)CCN2CCC(c3ccccc3)C2)cc1 (configuration not stated) | > 37.4 µM (inactive)
2 | CC(CN1CCCC1Cc1ccccc1)C(=O)c1ccc2c(c1)OCCO2 (configuration not stated) | > 37.4 µM (inactive)
3 | O=C(CCN1CCC(c2ccccc2)C1)c1ccccc1 (configuration not stated) | > 37.4 µM (inactive)
4 | COc1cc(C(=O)CCN2CCC(c3ccccc3)C2)cc(OC)c1OC (configuration not stated) | > 37.4 µM (inactive)

Results, then the compound that gave them:

Row | IC50 | SMILES
5 | 0.179 µM | N#Cc1c(C(F)(F)F)cc(-c2ccc(Cl)cc2)nc1SCC(=O)N1CCCC1
6 | 0.00433 µM | N#Cc1c(C(F)(F)F)cc(-c2ccc(Cl)cc2)nc1SCC(=O)Nc1ncccn1
7 | inactive | N#Cc1c(C(F)(F)F)cc(-c2ccc(Cl)cc2)nc1SCC(=O)N1CCCCCC1
